Legend:
CDK2 = target: T1, CDK2 (Homo sapiens, UniProt P24941); test: HiBiT assay (CDK2 degradation); format: cell-based; conditions: HEK293 clonal line with CRISPR KI HiBiT tag on CDK2, 24 hours, HiBiT Lysis Reagent
T1 construct: HEK293 clonal lines with CRISPR KI HiBiT tag on CDK2 proteins; host or cells: HEK293 clonal line, CRISPR knock-in HiBiT-CDK2, stably expressing LgBiT
Experimental: HEK293 clonal lines with CRISPR KI HiBiT tag on CDK2 proteins and stably expressing LgBiT protein were obtained from Promega (Madison, WI). Cells were plated at 5000 cells per well using Multiflo (BioTek) in 384-well white solid bottom plates (Corning, 3570BC) in 25 ul volume in DMEM media (DMEM, high glucose, HEPES, no phenol red (ThermoFisher Scientific, 21063029)) containing 10% FBS (Corning, 35-075-CV), 1% Penicillin/Streptomycin (ThermoFisher Scientific, 15140-122). Cells were incubated for 16 hours at 37° C., 5% CO2. 75 nL of a compound at 30 μM were dosed into the plate using an Echo® 650 liquid handler (Labcyte). Cells were incubated at 37° C., 5% CO2 for 24 hours. 5 ul of HiBiT Lysis Reagent (Promega, N3030) is added using Combi Multidrop (ThermoFisher Scientific), plates are incubated for 15′ at 37° C., 5% CO2 and then signal was read on a Pherastar FSX using “LUM plus” optic module.
Analysis was performed in Scinamic (Scinamic, Cambridge, MA). Luminescence response (R) was calculated by the formula: response=100*(S−N)/(P−N) where S is the signal of the well, N and P the mean negative and positive control values respectively of the same plate. The luminescence response was then fitted in Scinamic using a 3-parameter agonist logistic fit (hillslope=1, EC50>0, top/bottom unconstrained).

CRBN-DDB1 = CRBN-DDB1 (Homo sapiens, UniProt Q96SW2); test: Compound binding to CRBN by HTRF assay; conditions: CRBN-DDB1 2.5 nM, Cy5-Thalidomide 100 nM, 30 min; Ki from geometric mean IC50 by Cheng-Prustoff transformation
Outline: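 HTRF displacement of Cy5-thalidomide probe (100 nM) from His-CRBN-DDB1 (2.5 nM) with anti-His terbium cryptate, in HEPES/NaCl/TCEP/EDTA/Tween20 buffer. 10-point 1:3 compound series, 30 min at ambient temperature; signal normalised to DMSO and lenalidomide controls, IC50 fitted and Ki derived by Cheng-Prusoff.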

Chain of CRBN-DDB1 (Q96SW2 whole entry): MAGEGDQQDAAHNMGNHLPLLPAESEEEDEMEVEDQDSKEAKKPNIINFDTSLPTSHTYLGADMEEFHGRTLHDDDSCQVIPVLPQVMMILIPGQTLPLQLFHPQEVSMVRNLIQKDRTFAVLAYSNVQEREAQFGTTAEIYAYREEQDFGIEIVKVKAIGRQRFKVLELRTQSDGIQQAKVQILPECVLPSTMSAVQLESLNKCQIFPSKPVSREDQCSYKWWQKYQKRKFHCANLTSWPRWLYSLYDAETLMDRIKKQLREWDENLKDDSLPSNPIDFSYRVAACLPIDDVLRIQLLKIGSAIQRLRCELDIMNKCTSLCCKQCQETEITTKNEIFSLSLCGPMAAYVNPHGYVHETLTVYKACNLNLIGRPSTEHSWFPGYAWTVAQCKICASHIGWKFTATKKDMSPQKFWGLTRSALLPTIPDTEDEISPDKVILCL
Chain of CRBN-DDB1 (Q16531 whole entry partner): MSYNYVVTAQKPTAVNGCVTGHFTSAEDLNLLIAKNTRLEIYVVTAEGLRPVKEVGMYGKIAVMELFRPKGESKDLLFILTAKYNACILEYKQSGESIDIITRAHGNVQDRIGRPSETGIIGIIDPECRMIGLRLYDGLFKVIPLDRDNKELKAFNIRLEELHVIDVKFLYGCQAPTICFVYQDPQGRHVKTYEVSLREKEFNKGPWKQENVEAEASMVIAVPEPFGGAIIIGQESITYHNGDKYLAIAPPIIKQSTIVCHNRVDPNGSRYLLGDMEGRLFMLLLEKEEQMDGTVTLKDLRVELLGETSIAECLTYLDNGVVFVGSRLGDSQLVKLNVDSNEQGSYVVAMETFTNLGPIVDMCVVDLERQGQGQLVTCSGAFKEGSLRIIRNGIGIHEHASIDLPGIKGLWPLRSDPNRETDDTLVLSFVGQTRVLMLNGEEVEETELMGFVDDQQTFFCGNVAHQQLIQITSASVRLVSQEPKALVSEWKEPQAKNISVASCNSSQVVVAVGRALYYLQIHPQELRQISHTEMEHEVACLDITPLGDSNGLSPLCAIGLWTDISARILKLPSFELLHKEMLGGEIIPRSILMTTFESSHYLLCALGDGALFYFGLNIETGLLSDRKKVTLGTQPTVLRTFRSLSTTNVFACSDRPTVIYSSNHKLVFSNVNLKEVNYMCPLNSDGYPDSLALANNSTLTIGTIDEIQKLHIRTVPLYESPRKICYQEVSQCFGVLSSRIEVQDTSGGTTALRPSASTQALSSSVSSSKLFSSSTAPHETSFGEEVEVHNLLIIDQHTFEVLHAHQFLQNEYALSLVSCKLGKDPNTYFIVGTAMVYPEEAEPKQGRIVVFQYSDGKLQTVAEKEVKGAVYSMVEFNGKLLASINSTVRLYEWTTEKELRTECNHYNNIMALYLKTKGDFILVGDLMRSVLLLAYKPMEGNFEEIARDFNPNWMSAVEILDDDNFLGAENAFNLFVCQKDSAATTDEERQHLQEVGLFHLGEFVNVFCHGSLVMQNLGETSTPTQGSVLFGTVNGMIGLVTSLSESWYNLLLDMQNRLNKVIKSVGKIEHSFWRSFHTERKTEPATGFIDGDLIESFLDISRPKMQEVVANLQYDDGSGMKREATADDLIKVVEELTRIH

## O=C1CCC(N2Cc3ccc(CNC(=O)OCC4CC5(CCCC5)CO4)cc3C2=O)C(=O)N1 (stereo not shown) [Compound 94, {2-oxaspiro[4.4]nonan-3-yl}methyl N-{[2-(2,6-dioxopiperidin-3-yl)-3-oxo-2,3-dihydro-1H-isoindol-5-yl]methyl}carbamate]
CDK2
  Dmax: 10 to 50%
CRBN-DDB1
  Ki: 100 to 1000 nM

## O=C1CCC(N2Cc3ccc(CNC(=O)OCC4CC45CCC(F)(F)CC5)cc3C2=O)C(=O)N1 (stereo not shown) [Compound 95, {6,6-difluorospiro[2.5]octan-1-yl}methyl N-{[2-(2,6-dioxopiperidin-3-yl)-3-oxo-2,3-dihydro-1H-isoindol-5-yl]methyl}carbamate]
CDK2
  Dmax: 10 to 50%
CRBN-DDB1
  Ki: 100 to 1000 nM
